Source: PMC7180452, “Purine and Purine Isostere Derivatives of Ferrocene: An Evaluation of ADME, Antitumor and Electrochemical Properties” (Molecules, 2020)
Entries after “also recorded” stand apart in the source; their conditions may differ. Like-named read-outs stand apart in the source and are kept apart here.

Columns and labels:
[1] = tested on: ductal pancreatic adenocarcinoma (CFPAC-1); test: In vitro antiproliferative activity, CFPAC-1; format: cell-based, human; conditions: CFPAC-1 cells
Experimental: (§1) Antiproliferative activity of compounds 11a−11c, 12a−12c, 13a−13c, 14a−14c, 15a−15c, 16a, 23a−23c, 24a−24c, 25a−25c, 34a−34c and 35a−35c was evaluated in vitro on four human tumor cell lines (American Type Culture Collection, Manassas, VA, USA): metastatic colorectal adenocarcinoma (SW620), ductal pancreatic adenocarcinoma (CFPAC-1), hepatocellular carcinoma (HepG2) and cervical carcinoma (HeLa) as well as normal skin fibroblasts (HFF).

[2] = tested on: cervical carcinoma (HeLa); test: In vitro antiproliferative activity, HeLa; format: cell-based, human; conditions: HeLa cells
Experimental: as §1

[3] = tested on: metastatic colorectal adenocarcinoma (SW620); test: In vitro antiproliferative activity, SW620; format: cell-based, human; conditions: SW620 cells
Experimental: as §1

MDCKII-hMDR1 cells = test: Permeability and P-gp substrate assessment in MDCKII-hMDR1 cell monolayer; format: in vitro ADME, canine; conditions: for Permeability classification: MDCKII-hMDR1, in words; for Efflux Ratio (BA/AB) / Papp (AB) / Papp (BA): without P-gp inhibitor; for Papp (AB) / Papp (BA): 10 µM, 60 min
Experimental: The Madin-Darby canine kidney cells with overexpressed human multidrug-resistant gene (MDCKII-hMDR1) have been frequently used to study bidirectional transport of compounds and assess P-gp substrate potential. Apparent permeability (Papp) values were determined from the amount permeated through the MDCKII-hMDR1 cell monolayer in both the apical-basolateral (AB) and basolateral-apical (BA) direction.
MDCKII-hMDR1 cell monolayer was used for determination of permeability and P-gp substrate assessment. MDCKII-hMDR1 cells (Solvo Biotechnology, Szeged, Hungary) were grown in the controlled atmosphere (37 °C, 95% humidity, 5% CO2) in MDCK cell culture medium containing Dulbecco’s Modified Eagle Medium (DMEM) + 10% Fetal bovine serum (FBS, inactivated) + 1% glutamax-100 + 1% antibiotic/antimycotic + 1% of Non-essential amino acids Minimum Essential Medium (MEM NEAA). Cultures were split every 3–4 days using 0.05% Trypsin-EDTA. Cells were seeded 4 days prior to the experiment in concentration of 0.3 × 10^6 cells mL^−1 and cultured in CO2 incubator. On the experiment day, cell monolayers were washed with Dulbecco’s phosphate buffer saline (D-PBS) and equilibrated for 45 min in CO2 incubator in D-PBS containing 1% DMSO (1% v/v) with or without Elacridar (2 µM). Compounds, in final concentration of 10 µM, were prepared in transport medium containing Lucifer yellow (100 µM), with DMSO contentment of 1% (v/v) and in the presence and without Elacridar. Lucifer yellow calibration curve was prepared by serial dilution (12 points, with 100 µM as the highest point). Monolayer integrity was examined by fluorescent measurement on a Microplate reader Infinite F500 (Tecan) by using an excitation of 485 nm and emission of 530 nm. Experiment was started by applying the solutions containing test compounds to apical and basolateral side of the cell monolayer. Starting compound concentration (C0) was sampled at the start of the experiment and apical and basolateral compartments were sampled after incubation at 37 °C with gentle shaking for 60 min. Compound were tested in duplicate. Amprenavir was used as a control with low permeability and as a P-gp substrate without inhibitor presence, turning into a highly permeable compound with the inhibitor present.
Samples were analyzed on an ABSciex API 4000 Triple Quadrupole Mass Spectrometer (Sciex, Division of MDS Inc., Toronto, ON, Canada) coupled to a UHPLC Nexera X2 (Shimadzu, Kyoto, Japan). Samples (1 µL) were injected onto a reversed phase HPLC column Luna Omega Polar C18, 30 × 2.1 mm i.d., 1.6 µm particle size (Phenomenex) which was kept at 50 °C. Aqueous solution was 0.1% formic acid in deionized water and the organic mobile phase was […]. Flow rate was kept at 0.7 mL min^−1 for all measurements. Fast-gradient elution was as follows: 2% of organic mobile phase through 0.15 min, from 2 to 95% of organic mobile phase (0.15−0.7 min), 95% of organic mobile phase (0.7−1.1 min), from 95 to 2% of organic mobile phase (1.1−1.11 min), and re-equilibration with 98% of aqueous mobile phase (1.11−1.5 min). Positive ion mode with turbo spray, an ion source temperature of 550 °C and a dwell time of 75 ms were utilized for mass spectrometric detection. Quantitation was performed using multiple reaction monitoring (MRM) at the specific transition corresponding to the compound of interest. Warfarin was used as an internal standard. The ratios between compound and internal standard peak areas were used instead of real compound concentration. Apparent permeability coefficient, Papp (nm s^−1) values were calculated by using the following Equation (1):Papp [nm s^−1] = (dQ/dT) × (1/C0) × (1/A)(1) where: dQ/dT = permeability rate; C0 = initial concentration in donor compartment; A = surface area of the cell monolayer (0.7 cm^2). […]

[4] = tested on: hepatocellular carcinoma (HepG2); test: In vitro antiproliferative activity, HepG2; format: cell-based, human; conditions: HepG2 cells
Experimental: as §1

[5] = Metabolic stability in mouse liver microsomes; format: in vitro ADME; conditions: for t1/2: mouse liver microsomes, 1 µM; for In Vivo CLh (% LBF) / In Vivo CLh: mouse; for In Vivo CLh (% LBF): predicted, % of liver blood flow; for In Vivo CLh: predicted in vivo hepatic clearance
Experimental: (§2) Metabolic stability of compounds was assessed in human and mouse liver microsomes (Corning, Tewksbury, MA, USA). Compounds, in final concentration of 1 µM, were incubated in phosphate buffer (50 mM, pH 7.4) for 60 min at 37 °C together with liver microsomes and NADPH generating system (nicotinamide adenine dinucleotide phosphate (NADP, 0.5 mM), glucose-6-phosphate (G6P, 5 mM), glucose-6-phosphate dehydrogenase (1.5 U mL^−1) and magnesium chloride (0.5 mM)). Also, compounds were incubated without the presence of NADPH cofactor, as a buffer stability control. Metabolic activity of liver microsomes was verified by including testosterone and propranolol as positive controls, as well as caffeine as a negative control. Sampling was performed at six time points (0, 10, 20, 30, 45 and 60 min), followed by reaction termination by addition of acetonitrile/methanol mixture (2:1, v/v) containing dicofenac as internal standard. Samples were analyzed as previously described for samples from permeability assay. The in vitro half-life (t1/2) was calculated from the slope of the linear regression by plotting ln % remaining of parent compound against incubation time. In vitro intrinsic clearance, CLint was calculated from half-life using following Equation (3):(3) CLint [µL min^−1 mg^−1]=ln2/t1/2×mL per incubation/mg protein per incubation where 52.5 mg protein/g liver is used as a constant.
(§3) Predicted in vivo hepatic clearance, in vivo CLh was calculated as follows:(4) in vivo CLh [mL min^−1 kg^−1]=CLint×(mg protein/g liver)×Q×(LW/BW) /Q+(CLint×(mg protein/g liver)×(LW/BW)) where: LW/BW = liver weight/body weight [g kg^−1]; 25.7 (human), 87.5 (mouse); Q = LBF = liver blood flow [mL min^−1 kg^−1]; 21/1.26 (human), 131/7.86 (mouse).
(§4) Predicted in vivo hepatic clearance can be expressed as %LBF and calculated as follows:(5) in vivo CLh [%LBF]=in vivo CLh/LBF×100

[6] = Turbidimetric kinetic solubility assay; conditions: for Kinetic Solubility: PBS, 1% DMSO, 37 °C, 2 h, estimated range
Experimental: The turbidimetric solubility assay, which allows a rapid determination of the kinetic solubility of newly synthesized compounds using small amounts of their DMSO solutions, was used to assess the kinetic solubility [38].
The compounds’ DMSO stock solutions in concentration of 10 mM were serially diluted by factor 3.3×, 3×, 3.3× and 3× in DMSO. Prepared solutions were spiked into phosphate-buffered saline (PBS, 100 mM) to obtain final compounds’ concentrations of 100, 30, 10, 3 and 1 µM (3 µL of prepared dilutions were spiked to 297 µL of PBS, with final DMSO content of 1%, v/v). All compounds were tested in two replicas per concentration. Prepared solutions were incubated at 37 °C for 2 h with gentle shaking. Blank solutions were also prepared by spiking DMSO in PBS buffer (1% of DMSO, v/v). […] Compound/control samples are compared to the blank solution. […] Results were expressed as an estimated solubility range (lower and upper bound).

[7] = Chrom logD determination (fast-gradient HPLC); conditions: pH 7.4
Experimental: (§5) The distribution coefficient Chrom logD, a parameter used to assess the lipophilicity of compounds [36, 37], was determined for novel purine and purine isosteres with a ferrocene motif as shown in Table 1.
(§6) The distribution coefficient, Chrom logD, was determined from compounds’ gradient retention times by employing a high-performance liquid chromatography method with fast acetonitrile gradient. Compounds were prepared for analysis in final concentration of 1.25 mM by dilution of 10 mM stock solutions in DMSO with acetonitrile. Aqueous mobile phase was 50 mM ammonium acetate adjusted with ammonia solution to pH 7.4 and the organic mobile phase was acetonitrile. A reversed phase HPLC column Luna C18, 50 × 3 mm i.d., 5 µm particle size (Phenomenex, Torrance, CA, USA) was used for analysis. Sample injection volume was 2 µL and the flow rate was 1 mL min^−1. All compounds were analysed in duplicates. Fast-gradient elution was as follows: from 0 to 100% of acetonitrile (0−3 min), 100% of acetonitrile (3.0−3.5 min), from 100 to 0% of acetonitrile (3.5−3.7 min), and re-equilibration with 100% of aqueous mobile phase (3.7−5.0 min). All measurements were performed on an HPLC-DAD instrument Agilent 1100 Series (Agilent Technologies, Santa Clara, CA, USA) coupled with a mass spectrometer Micromass Quattro API (Waters, MA, USA). MassLynx software, version 4.1 (Waters, Manchester, UK) was used for data acquisition and processing. Before compound analysis, a calibration step was performed. A set of standard compounds with literature CHI values [36] were plotted against gradient retention times to obtain a calibration equation, which was used to determine CHI value from the compounds’ retention times.

[8] = tested on: normal skin fibroblasts (HFF); test: Cytotoxicity on non-tumor cells, HFF; format: cell-based, human
Experimental: as §1

[9] = Metabolic stability in human liver microsomes; format: in vitro ADME; conditions: for t1/2: 1 µM; for In Vivo CLh (% LBF) / In Vivo CLh: human; for In Vivo CLh (% LBF): predicted, % of liver blood flow; for In Vivo CLh: predicted in vivo hepatic clearance
Experimental: as §2, §3, §4

[10] = pH 7.4
Experimental: as §5, §6

| IC50 [1] | IC50 [2] | IC50 [3] | Permeability classification (MDCKII-hMDR1 cells) | Efflux Ratio (BA/AB) (MDCKII-hMDR1 cells) | Papp (AB) (MDCKII-hMDR1 cells) | Papp (BA) (MDCKII-hMDR1 cells) | IC50 [4] | t1/2 [5] | In Vivo CLh (% LBF) [5] | Kinetic Solubility [6] | Chrom logD [7] | t1/2 ([9]; human liver microsomes) | In Vivo CLh (% LBF) [9] | In Vivo CLh [5] | In Vivo CLh [9] | Solubility classification ([6]; kinetic solubility, in words) | Metabolic stability classification ([9]; human liver microsomes, in words) | Chrom logD [10] | Compound | IC50 [8] |
| --- | --- | --- | --- | --- | --- | --- | --- | --- | --- | --- | --- | --- | --- | --- | --- | --- | --- | --- | --- | --- |
| 32.9 ± 2.46 µM | 38.2 ± 2.3 µM | 31.6 ± 0.84 µM | moderate to high AB permeability | 2.2 | 8.4 ×10⁻⁶ cm/s | 18 ×10⁻⁶ cm/s | 42 ± 5.93 µM | 4.4 min | 98 % LBF | <1 µM | 5.62 | 7.8 min | 90 % LBF | – | – | – | – | – | Clc1ncnc2c1ccn2Cc1cn(C[c-]2cccc2)nn1.[Fe+2].c1cc[cH-]c1 [Compound 11a, 4-Chloro-7-[1-(1-ferrocenymethyl-1,2,3-triazol-4-yl)methyl]-7H-pyrrolo[2,3-d]pyrimidine] | 8.57 ± 1.95 µM |
| 64.6 ± 12.2 µM | > 100 µM | 97 ± 13.6 µM | – | – | – | – | 59.9 ± 10.9 µM | – | – | – | – | – | – | – | – | – | – | 4.56 | [Fe+2].c1cc[cH-]c1.c1ccc2c(c1)ncn2Cc1cn(C[c-]2cccc2)nn1 [Compound 23a, 1-[1-(1-Ferrocenylmethyl-1,2,3-triazol-4-yl)methyl]-1H-benzimidazole] | 23.8 ± 3.32 µM |
| 68 ± 13.7 µM | 89.6 ± 13.7 µM | > 100 µM | – | – | – | – | 83.6 ± 8.61 µM | – | – | – | – | – | – | – | – | – | – | 4.84 | CC([c-]1cccc1)n1cc(Cn2cnc3ccccc32)nn1.[Fe+2].c1cc[cH-]c1 (stereo not shown) [Compound 23b, 1-[1-(1-Ferrocenyl-1-methylmethyl-1,2,3-triazol-4-yl)methyl]-1H-benzimidazole] | 31.8 ± 9.81 µM |
| > 100 µM | > 100 µM | > 100 µM | – | – | – | – | > 100 µM | – | – | 30 to 100 µM | 3.58 | – | – | – | – | – | – | – | [Fe+2].c1cc[c-](-c2cn(CCn3cnc4c(N5CCCC5)ncnc43)nn2)c1.c1cc[cH-]c1 [Compound 35b, 6-(Pyrrolidin-1-yl)-9-[2-(4-ferrocenyl-1,2,3-triazol-1-yl)ethyl]-9H-purine] | > 100 µM |

The remaining lines, values behind:

| Compound | IC50 [1] | IC50 [2] | IC50 [3] | Permeability classification (MDCKII-hMDR1 cells) | Efflux Ratio (BA/AB) (MDCKII-hMDR1 cells) | Papp (AB) (MDCKII-hMDR1 cells) | Papp (BA) (MDCKII-hMDR1 cells) | IC50 [4] | t1/2 [5] | In Vivo CLh (% LBF) [5] | Kinetic Solubility [6] | Chrom logD [7] | t1/2 ([9]; human liver microsomes) | In Vivo CLh (% LBF) [9] | In Vivo CLh [5] | In Vivo CLh [9] | Solubility classification ([6]; kinetic solubility, in words) | Metabolic stability classification ([9]; human liver microsomes, in words) | Chrom logD [10] | IC50 [8] |
| --- | --- | --- | --- | --- | --- | --- | --- | --- | --- | --- | --- | --- | --- | --- | --- | --- | --- | --- | --- | --- |
| CC([c-]1cccc1)n1cc(Cn2ccc3c(Cl)ncnc32)nn1.[Fe+2].c1cc[cH-]c1 (stereo not shown) [Compound 11b, 4-Chloro-7-[1-(1-ferrocenyl-1-methylmethyl-1,2,3-triazol-4-yl)methyl]-7H-pyrrolo[2,3-d] pyrimidine] | 31.3 ± 4.51 µM | 31.4 ± 1.04 µM | 32 ± 0.34 µM | high permeability | 1.5 | 11.8 ×10⁻⁶ cm/s | 17.4 ×10⁻⁶ cm/s | 34.5 ± 1.36 µM | – | 100 % LBF | 3 to 10 µM | 5.94 | 2.3 min | 97 % LBF | 25.7 mL/min/kg | 24.9 mL/min/kg | – | – | – | 8.88 ± 3.46 µM |
| Clc1ncnc2ncn(Cc3cn(C[c-]4cccc4)nn3)c12.[Fe+2].c1cc[cH-]c1 [Compound 15a, 6-Chloro-7-[1-(1-ferrocenymethyl-1,2,3-triazol-4-yl)methyl]-7H-purine] | 34.4 ± 0.43 µM | 28.6 ± 8.28 µM | 27.2 ± 5.3 µM | moderate AB permeability; also recorded: good permeability | 7.0 | 4.8 ×10⁻⁶ cm/s | 33.5 ×10⁻⁶ cm/s | 36 ± 1.81 µM | 8.8 min | 97 % LBF | >100 µM | 3.82 | 51.9 min | 58 % LBF | 24.8 mL/min/kg | 15.0 mL/min/kg | high solubility | moderate stability | – | 13.8 ± 4.17 µM |
| [Fe+2].c1cc[c-](-c2cn(CCn3cnc4c(N5CCCCC5)ncnc43)nn2)c1.c1cc[cH-]c1 [Compound 35c, 6-(Piperidin-1-yl)-9-[2-(4-ferrocenyl-1,2,3-triazol-1-yl)ethyl]-9H-purine] | > 100 µM | > 100 µM | > 100 µM | – | – | – | – | > 100 µM | – | – | 10 to 30 µM | 5.02 | – | – | – | – | – | – | – | 6.83 ± 2.17 µM |
